Holding throughout (experiment): NCI-60 cell line screen, 48 h
Assay [1] concerns SN12C.
In assay [2] the test system is COLO 205.
The subject of assay [3] is EKVX.
Assay [4] relates to UACC-257.
For assay [5], the system named is CAKI-1.
Assay [6] has as its system HOP-92.
In assay [7] the test system is SNB-75.
The subject of assay [8] is SK-OV-3.
The subject of assay [9] is OVCAR-5.
Assay [10] has as its system HCT-116.
Assay [11] relates to HL-60.
For assay [12], the system named is NCI-H226.
The test system of assay [13] is SF-268.
Assay [14] has as its system UO-31.
The test system of assay [15] is HCT-15.
For assay [16], the system named is NCI-H460.
Assay [17] has as its system MOLT-4.
Assay [18] concerns SR.

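Step 1: Grow cells in 96-well plates. Step 2: Expose to compound for 48 hours at 5 concentrations. Step 3: Interpolate endpoints linearly; if unreached, use highest concentration. The concentration for 50% growth inhibition is given as GI50.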 Activity calls are given as the source filed them. No stated cut-off is given here; in the data, active = GI50 up to about 1.1 µM and inactive = higher.

Regarding `CN(C)/N=C(\CCN1CCCC1)CC(c1ccccc1)c1c(O)c2ccccc2oc1=O` (configuration not stated), the GI50 in assay [1], in [2], in assay [3], in assay [4], in assay [5] and in assay [6] was > 100 µM (inactive) in each case. For the same molecule, the GI50 is 58.2 µM (inactive) in [7]; > 100 µM (inactive) in assay [8]; > 100 µM (inactive) in [9]; > 100 µM (inactive) in assay [10]; 25.2 µM (inactive) in assay [11]; > 100 µM (inactive) in assay [12]. Moreover, in assay [13], the GI50 was > 100 µM (inactive).
As to `CC(NC1CCCC[C@@H]1O)c1ccccc1` (some centres not stated), the GI50 was > 100 µM (inactive) in [14]; > 100 µM (inactive) in assay [1]; more than 100 µM in assay [15]; > 100 µM (inactive) in assay [2]; > 100 µM (inactive) in [3]; > 100 µM (inactive) in assay [4]. Besides, the GI50 in assay [16] is > 100 µM (inactive); in [5] it was 55.3 µM (inactive); in [6], > 100 µM (inactive); in [7] it was > 100 µM (inactive); in assay [8] it was > 100 µM (inactive); in assay [9], > 100 µM (inactive). The GI50 in assay [17], in [10], in [11] and in [12] was > 100 µM (inactive) each time.
With `CC1OC=CC(=O)C1O` (configuration not stated), the GI50 was > 100 µM (inactive) in assay [14]; > 100 µM (inactive) in assay [1]; more than 100 µM in [15]; > 100 µM (inactive) in [18]; > 100 µM (inactive) in assay [3]; > 100 µM (inactive) in [4]. The GI50 in assay [16], in assay [6], in [7], in assay [8], in assay [9] and in assay [17] was > 100 µM (inactive) throughout. Also, the GI50 in assay [11] is > 100 µM (inactive).
Turning to `N#CCCc1nc2ccc(Br)cc2c(=O)n1-c1ccc(O)c([N+](=O)[O-])c1`, the GI50 in assay [14] is 25.6 µM (inactive); in assay [1], 19 µM (inactive); in assay [15] it was 18.8 µM; in assay [2], 22.9 µM (inactive); in assay [3] it was 25.5 µM (inactive); in assay [4], 30.1 µM (inactive). In addition, the GI50 in assay [16] was 27.5 µM (inactive); in [5], 32.9 µM (inactive); in assay [6], 25.4 µM (inactive); in assay [7], 26.7 µM (inactive); in [8], 38.5 µM (inactive); in [9], 46.1 µM (inactive). For the same molecule, the GI50 in [17] is 19.6 µM (inactive); in [11] it was 17.2 µM (inactive); in assay [12], 19.9 µM (inactive); in assay [13], 24.1 µM (inactive).
`COC1/C(=C\c2ccccc2I)c2ccccc2N1C(C)=O` (configuration not stated): the GI50 in assay [14] is 2.48 µM (inactive); in assay [1] it was 15.2 µM (inactive); in [15], 14.2 µM; in assay [18] it was 14.4 µM (inactive); in [2], 17.6 µM (inactive); in assay [3] it was 15.1 µM (inactive). Besides, the GI50 in assay [4] was 18.3 µM (inactive); in assay [16], 17.6 µM (inactive); in assay [5], 17.1 µM (inactive); in assay [6], 2.2 µM (inactive); in [7], 14.3 µM (inactive); in assay [17], 14.1 µM (inactive). Also, the GI50 in assay [10] was 13.8 µM (inactive); in assay [11] it was 3.46 µM (inactive).
For the molecule `CC(=O)C(=Cc1cn(C)c(=O)n(C)c1=O)C(C)=O`, the GI50 is 83.8 µM (inactive) in assay [14]; 99.1 µM (inactive) in assay [1]; 94 µM in assay [15]; 80.9 µM (inactive) in [2]; 121 µM (inactive) in assay [3]; 85.9 µM (inactive) in assay [4]. In addition, the GI50 was 92.3 µM (inactive) in assay [16]; 83 µM (inactive) in assay [5]; 2.62 µM (inactive) in assay [6]; 65 µM (inactive) in assay [7]; 99.8 µM (inactive) in assay [8]; 97.7 µM (inactive) in assay [9]. In addition, the GI50 is 119 µM (inactive) in assay [17]; 87.5 µM (inactive) in assay [10]; 84.3 µM (inactive) in assay [11]; 116 µM (inactive) in [12]; 148 µM (inactive) in assay [13].
On to `CCOC(=O)C1=C(C)N(NC(N)=O)C(C)(O)C12CCOC2=O` (configuration not stated), for which the GI50 was > 100 µM (inactive) in assay [14]; > 100 µM (inactive) in [1]; more than 100 µM in assay [15]; > 100 µM (inactive) in [18]; > 100 µM (inactive) in assay [3]; > 100 µM (inactive) in assay [4]. For the same molecule, the GI50 in assay [16], in assay [5], in [7], in [8], in [9] and in [17] was > 100 µM (inactive) each time. Also, the GI50 in assay [10], in assay [11], in assay [12] and in assay [13] was > 100 µM (inactive) in each case.
For the molecule `O=C(N[C@@H](c1ccccc1)[C@@H](O)C(=O)OCc1ccc2c(c1)OCO2)c1ccccc1`, the GI50 in assay [14] is > 91.6 µM (inactive); in assay [1], > 100 µM (inactive); in assay [15], more than 100 µM; in [2], > 100 µM (inactive); in [3], > 100 µM (inactive); in [4], > 100 µM (inactive). Also, the GI50 in assay [16] is > 100 µM (inactive); in [5], 1 µM (active); in assay [6], > 86.7 µM (inactive); in [7], > 90.4 µM (inactive); in [8] it was > 100 µM (inactive); in assay [9] it was > 31.6 µM (inactive). For the same molecule, the GI50 in assay [17] is > 91.8 µM (inactive); in [10], > 100 µM (inactive); in [11] it was > 100 µM (inactive); in assay [12] it was > 84.1 µM (inactive); in assay [13] it was > 100 µM (inactive).
For `CCCCCCCCOC(CO)CO`, the GI50 in assay [14] was > 100 µM (inactive); in assay [1], > 100 µM (inactive); in assay [15], more than 100 µM; in assay [18] it was > 100 µM (inactive); in [2], > 100 µM (inactive); in [4] it was > 100 µM (inactive). Moreover, the GI50 is > 100 µM (inactive) in assay [16]; > 100 µM (inactive) in assay [5]; 44.6 µM (inactive) in [6]; > 100 µM (inactive) in assay [8]; > 100 µM (inactive) in assay [9]; > 100 µM (inactive) in assay [17]. The GI50 in assay [10], in assay [11], in assay [12] and in assay [13] was > 100 µM (inactive) in each case.
In the case of `CC1C(=O)CC(c2cccs2)N(N=O)C1c1cccs1` (configuration not stated), the GI50 in assay [14] was 43.6 µM (inactive); in assay [1], 69.8 µM (inactive); in assay [15] it was 46.1 µM; in assay [2], 53.1 µM (inactive); in assay [3], 57.1 µM (inactive); in assay [4], 39.1 µM (inactive). In addition, the GI50 was 34.8 µM (inactive) in assay [16]; > 100 µM (inactive) in assay [5]; 23.7 µM (inactive) in assay [6]; 33.1 µM (inactive) in assay [7]; 29.8 µM (inactive) in assay [8]; > 100 µM (inactive) in assay [9]. For the same molecule, the GI50 in assay [17] is 25.8 µM (inactive); in [10], 46.2 µM (inactive); in [11] it was 26.7 µM (inactive); in assay [12], > 92 µM (inactive); in assay [13] it was 97.3 µM (inactive).
On to `Cc1nc2c(o1)/C(=N\c1ccccc1)c1ccccc1/C2=N/c1ccccc1`, for which the GI50 in assay [14] is 73.6 µM (inactive); in [1], 63.4 µM (inactive); in [15] it was 16 µM; in [2], 29.1 µM (inactive); in [3], 79.1 µM (inactive); in [4], > 100 µM (inactive). For the same molecule, the GI50 is 39.4 µM (inactive) in assay [16]; > 100 µM (inactive) in [5]; 49.2 µM (inactive) in assay [6]; 61.8 µM (inactive) in assay [7]; > 100 µM (inactive) in assay [8]; > 100 µM (inactive) in assay [9]. In addition, the GI50 in assay [17] is > 100 µM (inactive); in assay [10], 70.8 µM (inactive); in assay [11], > 100 µM (inactive); in assay [13], > 100 µM (inactive).
Regarding `Cc1cccc(C(C)(C)C)c1NC(=O)CCc1nnc(S)[nH]1`, the GI50 is > 100 µM (inactive) in assay [14]; > 100 µM (inactive) in assay [1]; more than 100 µM in assay [15]; > 100 µM (inactive) in assay [2]; > 100 µM (inactive) in assay [4]; > 100 µM (inactive) in assay [16]. For the same molecule, the GI50 in [5], in [6], in assay [7], in assay [8], in [9] and in assay [17] was > 100 µM (inactive) throughout. Further, the GI50 in [10], in [11], in assay [12] and in assay [13] was > 100 µM (inactive) in each case.
Take `CCCCCCc1cn([C@H]2C[C@H](O)[C@@H](CO)O2)c(=O)[nH]c1=O`: the GI50 in assay [14] is > 100 µM (inactive); in assay [1], > 100 µM (inactive); in assay [15], more than 100 µM; in assay [3], > 100 µM (inactive); in [4], > 100 µM (inactive); in assay [16], > 100 µM (inactive). The GI50 in assay [5] is > 100 µM (inactive); in assay [6], > 100 µM (inactive); in [7] it was > 100 µM (inactive); in [8], > 10 µM (inactive); in [9] it was > 100 µM (inactive); in [10] it was > 100 µM (inactive). For the same molecule, the GI50 in assay [11], in [12] and in [13] was > 100 µM (inactive) each time.

Values taken from ChEMBL document CHEMBL1201862, “PubChem BioAssay data set” (2004).
